# Biological target: human RIP1 kinase domain (2-375) (Homo sapiens (Human), UniProt Q13546)
# Experiment: biochemical
# Assay type: biochemical
# Details: tight-binding apparent inhibition constant; human RIP1 kinase domain (2-375) 50 nM, 50 uM ATP, 2 hours; read-out: Ki
# Outline: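 Ki^app comes from Morrison tight-binding fits of fractional activity versus compound concentration. Activity was read as ADP production, via tracer displacement lowering fluorescence polarization (633 nm laser). Conditions: 2 h, 50 nM insect-cell-expressed enzyme, 50 uM ATP, 30 mM MgCl2, 1 mM DTT, 0.5% DMSO, pH 7.5 Hepes.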
# Sequence of human RIP1 kinase domain (2-375) (Q13546 2-375): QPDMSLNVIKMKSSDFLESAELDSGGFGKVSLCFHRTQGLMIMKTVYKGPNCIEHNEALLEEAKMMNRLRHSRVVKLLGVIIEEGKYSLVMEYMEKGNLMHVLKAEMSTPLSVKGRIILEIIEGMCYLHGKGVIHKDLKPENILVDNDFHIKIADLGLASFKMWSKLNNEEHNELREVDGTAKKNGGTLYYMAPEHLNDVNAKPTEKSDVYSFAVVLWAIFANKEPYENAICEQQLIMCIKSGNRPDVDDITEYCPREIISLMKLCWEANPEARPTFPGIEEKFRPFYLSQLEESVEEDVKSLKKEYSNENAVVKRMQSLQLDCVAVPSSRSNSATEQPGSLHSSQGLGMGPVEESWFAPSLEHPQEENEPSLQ
row,Ki,Structure (SMILES)
1,82 nM,"Cc1cc2n(n1)CC[C@H](NC(=O)c1nnc(Cc3ccc(F)cc3)[nH]1)C(=O)N2C [Example 484, 5-[(4-fluorophenyl)methyl]-N-(6S)-2,4-dimethyl-5-oxo-7,8-dihydro-6H-pyrazolo[1,5-a][1,3]diazepin-6-yl-4H-1,2,4-triazole-3-carboxamide]"
2,4.2 nM,"CN1C(=O)[C@@H](NC(=O)c2ncc3cnn(C4CCCC4)c3n2)COc2ccccc21 [Example 485, 1-cyclopentyl-N-[(3S)-5-methyl-4-oxo-2,3-dihydro-1,5-benzoxazepin-3-yl]pyrazolo[3,4-d]pyrimidine-6-carboxamide]"
3,370 nM,"Cc1cc2n(n1)CC[C@H](NC(=O)c1ncc3c(n1)C(C)(CC(F)(F)F)OC3)C(=O)N2C (stereo partly drawn) [Example 487, 7-methyl-N-[(6S)-2,4-dimethyl-5-oxo-7,8-dihydro-6H-pyrazolo[1,5-a][1,3]diazepin-6-yl]-7-(2,2,2-trifluoroethyl)-5H-furo[3,4-d]pyrimidine-2-carboxamide]"
4,1800 nM,"CCC(C)(O)c1ccnc(C(=O)N[C@H]2COc3ccccc3N(C)C2=O)c1 (stereo partly drawn) [Example 488, 4-(1-hydroxy-1-methyl-propyl)-N-[(3S)-5-methyl-4-oxo-2,3-dihydro-1,5-benzoxazepin-3-yl]pyridine-2-carboxamide]"
5,94 nM,"CN1C(=O)[C@@H](NC(=O)c2cc3c(cn2)COC32CCCOC2)COc2ccccc21 (stereo partly drawn) [Example 489, N-[(3S)-5-methyl-4-oxo-2,3-dihydro-1,5-benzoxazepin-3-yl]spiro[3H-furo[3,4-c]pyridine-1,3′-tetrahydropyran]-6-carboxamide]"
6,40 nM,"Cc1nn2c(c1C)N(C)C(=O)[C@@H](NC(=O)c1nnc(Cc3cccc(F)c3F)[nH]1)CC2 [Example 490, 5-[(2,3-difluorophenyl)methyl]-N-(6S)-2,3,4-trimethyl-5-oxo-7,8-dihydro-6H-pyrazolo[1,5-a][1,3]diazepin-6-yl-4H-1,2,4-triazole-3-carboxamide]"
7,180 nM,Cc1cc2n(n1)CC[C@H](NC(=O)c1ncn(C[C@H]3C[C@@H](C(F)(F)F)C3)n1)C(=O)N2C [Example 492]
8,92 nM,CN1C(=O)[C@@H](NC(=O)c2ncn(C[C@H]3C[C@@H](C(F)(F)F)C3)n2)CCn2nccc21 [Example 493]
9,110 nM,CN1C(=O)[C@@H](NC(=O)c2ncn(C[C@H]3C[C@H](C(F)(F)F)C3)n2)CCn2nccc21 [Example 494]
10,130 nM,"Cc1cc2n(n1)CC[C@H](NC(=O)c1ncn(CC3(C)CCCC3)n1)C(=O)N2C [Example 495, 1-[(1-methylcyclopentyl)methyl]-N-(6S)-2,4-dimethyl-5-oxo-7,8-dihydro-6H-pyrazolo[1,5-a][1,3]diazepin-6-yl-1,2,4-triazole-3-carboxamide]"
11,52 nM,"CN1C(=O)[C@@H](NC(=O)c2ncn(C[C@H]3C[C@@H](C)C3)n2)CCn2nccc21 [Example 496, N—((S)-4-methyl-5-oxo-5,6,7,8-tetrahydro-4H-pyrazolo[1,5-a][1,3]diazepin-6-yl)-1-(((1S,3R)-3-methylcyclobutyl)methyl)-1H-1,2,4-triazole-3-carboxamide]"
12,41 nM,"CN1C(=O)[C@@H](NC(=O)c2ncn(C[C@H]3C[C@H](C)C3)n2)CCn2nccc21 [Example 497, N—((S)-4-methyl-5-oxo-5,6,7,8-tetrahydro-4H-pyrazolo[1,5-a][1,3]diazepin-6-yl)-1-(((1R,3S)-3-methylcyclobutyl)methyl)-1H-1,2,4-triazole-3-carboxamide]"
13,400 nM,"Cc1cc2n(n1)CC[C@H](NC(=O)c1ncn(C[C@H]3C[C@H](C)C3)n1)C(=O)N2C [Example 498, N—((S)-2,4-dimethyl-5-oxo-5,6,7,8-tetrahydro-4H-pyrazolo[1,5-a][1,3]diazepin-6-yl)-1-(((1S,3R)-3-methylcyclobutyl)methyl)-1H-1,2,4-triazole-3-carboxamide]"
14,870 nM,"Cc1cc2n(n1)CC[C@H](NC(=O)c1ncn(C[C@H]3C[C@@H](C)C3)n1)C(=O)N2C [Example 499, N—((S)-2,4-dimethyl-5-oxo-5,6,7,8-tetrahydro-4H-pyrazolo[1,5-a][1,3]diazepin-6-yl)-1-(((1R,3S)-3-methylcyclobutyl)methyl)-1H-1,2,4-triazole-3-carboxamide]"
15,36 nM,"CC[C@H]1C[C@@H](Cn2cnc(C(=O)N[C@H]3CCn4nc(C)cc4N(C)C3=O)n2)C1 [Example 500, N—((S)-2,4-dimethyl-5-oxo-5,6,7,8-tetrahydro-4H-pyrazolo[1,5-a][1,3]diazepin-6-yl)-1-(((1R,3R)-3-ethylcyclobutyl)methyl)-1H-1,2,4-triazole-3-carboxamide]"
16,67 nM,"CC[C@H]1C[C@H](Cn2cnc(C(=O)N[C@H]3CCn4nc(C)cc4N(C)C3=O)n2)C1 [Example 501, N—((S)-2,4-dimethyl-5-oxo-5,6,7,8-tetrahydro-4H-pyrazolo[1,5-a][1,3]diazepin-6-yl)-1-(((1S,3S)-3-ethylcyclobutyl)methyl)-1H-1,2,4-triazole-3-carboxamide]"

row,Ki,Structure (SMILES)
1,27 nM,"CC[C@H]1C[C@@H](Cn2cnc(C(=O)N[C@H]3CCn4nccc4N(C)C3=O)n2)C1 [Example 502, N—((S)-4-methyl-5-oxo-5,6,7,8-tetrahydro-4H-pyrazolo[1,5-a][1,3]diazepin-6-yl)-1-(((1R,3R)-3-ethylcyclobutyl)methyl)-1H-1,2,4-triazole-3-carboxamide]"
2,23 nM,"CC[C@H]1C[C@H](Cn2cnc(C(=O)N[C@H]3CCn4nccc4N(C)C3=O)n2)C1 [Example 503, N—((S)-4-methyl-5-oxo-5,6,7,8-tetrahydro-4H-pyrazolo[1,5-a][1,3]diazepin-6-yl)-1-(((1S,3 S)-3-ethylcyclobutyl)methyl)-1H-1,2,4-triazole-3-carboxamide]"
3,50 nM,"Cc1ncn2c1N(C)C(=O)[C@H](NC(=O)c1ncn(Cc3cc(F)ccc3F)n1)CC2 [Example 504, 1-[(2,5-difluorophenyl)methyl]-N-(3R)-1,9-dimethyl-2-oxo-4,5-dihydro-3H-imidazo[1,5-a][1,3]diazepin-3-yl-1,2,4-triazole-3-carboxamide]"
4,36 nM,"Cc1ncn2c1N(C)C(=O)[C@H](NC(=O)c1ncn(Cc3ccccc3)n1)CC2 [Example 505, 1-benzyl-N-(3R)-1,9-dimethyl-2-oxo-4,5-dihydro-3H-imidazo[1,5-a][1,3]diazepin-3-yl-1,2,4-triazole-3-carboxamide]"
5,19 nM,"CN1C(=O)[C@@H](NC(=O)c2ncn(Cc3cc(F)ccc3F)n2)CCn2ccnc21 [Example 506, 1-[(2,5-difluorophenyl)methyl]-N-[(7S)-9-methyl-8-oxo-6,7-dihydro-5H-imidazo[1,2-a][1,3]diazepin-7-yl]-1,2,4-triazole-3-carboxamide]"
6,26 nM,"CN1C(=O)[C@H](NC(=O)c2ncn(Cc3cc(F)ccc3F)n2)CCn2cncc21 [Example 507, 1-[(2,5-difluorophenyl)methyl]-N-[(3R)-1-methyl-2-oxo-4,5-dihydro-3H-imidazo[1,5-a][1,3]diazepin-3-yl]-1,2,4-triazole-3-carboxamide]"
7,90 nM,"CN1C(=O)[C@@H](NC(=O)c2ncc3c(n2)C2(CCOC2)OC3)COc2ccccc21 (stereo partly drawn) [Example 508, N-[(3S)-5-methyl-4-oxo-2,3-dihydro-1,5-benzoxazepin-3-yl]spiro[5H-furo[3,4-d]pyrimidine-7,3′-tetrahydrofuran]-2-carboxamide]"
8,440 nM,"CN1C(=O)[C@@H](NC(=O)c2nccc(C3(O)CCCC3)n2)COc2ccccc21 [Example 509, 4-(1-hydroxycyclopentyl)-N-[(3S)-5-methyl-4-oxo-2,3-dihydro-1,5-benzoxazepin-3-yl]pyrimidine-2-carboxamide]"
9,330 nM,CN1C(=O)[C@@H](NC(=O)c2ncc3c(n2)C2(CCOCC2)OC3)COc2ccccc21 [Example 510]
10,83 nM,"CN1C(=O)[C@@H](NC(=O)c2ncc3c(n2)C2(CCCOC2)OC3)COc2ccccc21 (stereo partly drawn) [Example 511, N-[(3S)-5-methyl-4-oxo-2,3-dihydro-1,5-benzoxazepin-3-yl]spiro[5H-furo[3,4-d]pyrimidine-7,3′-tetrahydropyran]-2-carboxamide]"
11,840 nM,"Cc1cc2n(n1)CC[C@H](NC(=O)c1ncc3c(n1)C1(CCOCC1)OC3)C(=O)N2C [Example 512, N-[(6S)-2,4-dimethyl-5-oxo-7,8-dihydro-6H-pyrazolo[1,5-a][1,3]diazepin-6-yl]spiro[5H-furo[3,4-d]pyrimidine-7,4′-tetrahydropyran]-2-carboxamide]"
12,29 nM,"Cc1cc2n(n1)CC[C@H](NC(=O)c1nnc(Cc3cccc(F)c3F)[nH]1)C(=O)N2C [Example 513, 5-[(2,3-difluorophenyl)methyl]-N-(6S)-2,4-dimethyl-5-oxo-7,8-dihydro-6H-pyrazolo[1,5-a][1,3]diazepin-6-yl-4H-1,2,4-triazole-3-carboxamide]"
13,17 nM,"CN1C(=O)[C@@H](NC(=O)c2nnc(Cc3cccc(F)c3F)[nH]2)CCn2nc(C3CC3)cc21 [Example 514, 5-[(2,3-difluorophenyl)methyl]-N-(6 S)-2-cyclopropyl-4-methyl-5-oxo-7,8-dihydro-6H-pyrazolo[1,5-a][1,3]diazepin-6-yl-4H-1,2,4-triazole-3-carboxamide]"
14,29 nM,"CN1C(=O)[C@@H](NC(=O)c2nc3n(n2)CCOC3c2ccccc2)COc2ccccc21 (stereo partly drawn) [Example 515, 8-phenyl-N-[(3S)-5-methyl-4-oxo-2,3-dihydro-1,5-benzoxazepin-3-yl]-6,8-dihydro-5H-[1,2,4]triazolo[5,1-c][1,4]oxazine-2-carboxamide]"
15,18 nM,"CN1C(=O)[C@@H](NC(=O)c2nc3n(n2)CCO[C@H]3c2ccccc2)COc2ccccc21 [Example 516, (8S)-8-phenyl-N-[(3S)-5-methyl-4-oxo-2,3-dihydro-1,5-benzoxazepin-3-yl]-6,8-dihydro-5H-[1,2,4]triazolo[5,1-c][1,4]oxazine-2-carboxamide]"

# Reference: patent US10988459B2 (priority 2015, dated 2021)
